Experimental data from patent US20250145665A1, “MACROCYCLIC PEPTIDES USEFUL AS MODULATORS OF TNF ALPHA” (Bristol-Myers Squibb Company, priority 2023, published 2025).
Positions of bridges follow the written chain, without caps; N, C: chain ends. Non-standard residues stand in square brackets, D forms with d. Residues, ends and D or L forms follow the SMILES beside them. Bip(4'-COOH) = N[C@@H](Cc1ccc(-c2ccc(C(=O)O)cc2)cc1)C(=O)O; Bip(4'-NHAc) = CC(=O)Nc1ccc(-c2ccc(C[C@H](N)C(=O)O)cc2)cc1; Ala(morpholin-4-yl) = N[C@@H](CN1CCOCC1)C(=O)O; Phe(3-CONH2) = NC(=O)c1cccc(C[C@H](N)C(=O)O)c1; Bip = N[C@@H](Cc1ccc(-c2ccccc2)cc1)C(=O)O; Phe(2-Me) = Cc1ccccc1C[C@H](N)C(=O)O; Val(3-OH) = CC(C)(O)[C@H](N)C(=O)O; 2Pal = N[C@@H](Cc1ccccn1)C(=O)O; Chg = N[C@H](C(=O)O)C1CCCCC1; Aze = O=C(O)[C@@H]1CCN1; Sar = CNCC(=O)O

Biological target: TNFα (Homo sapiens, UniProt P01375)
Sequence (P01375 77-233 limits assumed): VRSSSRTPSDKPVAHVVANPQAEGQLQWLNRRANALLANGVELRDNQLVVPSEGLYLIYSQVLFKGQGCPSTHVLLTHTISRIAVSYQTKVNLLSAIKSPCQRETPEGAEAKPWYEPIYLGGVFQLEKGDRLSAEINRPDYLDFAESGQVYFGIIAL
Assay: TNF-Induced HEK-Blue Assay
Format: cell-based
Details: HEK-Blue-CD40L cells, NF-kB-driven secreted alkaline phosphatase reporter; TNFα 0.5 ng/ml; 18 h; read-out: TNF induced HEK-Blue assay IC50 value

SMILES | IC50 [µM]
CC(=O)Nc1ccc(-c2ccc(C[C@@H]3NC(=O)[C@H](Cc4ccc(-c5ccc(C(=O)O)cc5)cc4)NC(=O)[C@H](CN4CCOCC4)NC(=O)CSC[C@@H](C(=O)NCC(N)=O)NC(=O)[C@H](CC(C)C)NC(=O)[C@H](Cc4ccccn4)NC(=O)[C@H](C(C)C)NC(=O)[C@@H]4CCN4C(=O)[C@H](C(C)C)NC(=O)[C@@H](CCCNC(=N)N)NC(=O)[C@H](CC(=O)O)NC(=O)[C@H](Cc4ccccn4)NC(=O)CN(C)C3=O)cc2)cc1 [Example 190] ({CH2CO}-[Ala(morpholin-4-yl)][Bip(4'-COOH)][Bip(4'-NHAc)][Sar][2Pal]D[dR]V[Aze]V[2Pal]LCG-NH2; thioether N-13) | 0.05 to 0.2
CC(=O)Nc1ccc(-c2ccc(C[C@@H]3NC(=O)[C@H](Cc4ccc(-c5ccc(C(=O)O)cc5)cc4)NC(=O)[C@H](CN4CCOCC4)NC(=O)CSC[C@@H](C(=O)NCC(N)=O)NC(=O)[C@H](CC(C)C)NC(=O)[C@H](CCCNC(=N)N)NC(=O)[C@H](C(C)C)NC(=O)[C@@H]4CCCN4C(=O)[C@H](C(C)C)NC(=O)[C@H](CCCNC(=N)N)NC(=O)[C@H](CC(=O)O)NC(=O)[C@H](Cc4ccc(O)cc4)NC(=O)CN(C)C3=O)cc2)cc1 [Example 191] ({CH2CO}-[Ala(morpholin-4-yl)][Bip(4'-COOH)][Bip(4'-NHAc)][Sar]YDRVPVRLCG-NH2; thioether N-13) | 0.05 to 0.2
CC(=O)Nc1ccc(-c2ccc(C[C@@H]3NC(=O)[C@H](Cc4ccc(-c5ccccc5)cc4)NC(=O)[C@H](CN4CCOCC4)NC(=O)CSC[C@@H](C(=O)NCC(N)=O)NC(=O)[C@H](CC(C)C)NC(=O)[C@H](CCCNC(=N)N)NC(=O)[C@H](C(C)C)NC(=O)[C@@H]4CCCN4C(=O)[C@H](C(C)C)NC(=O)[C@H](CCCNC(=N)N)NC(=O)[C@H](CC(=O)O)NC(=O)[C@H](Cc4ccc(O)cc4)NC(=O)CNC3=O)cc2)cc1 [Example 192] ({CH2CO}-[Ala(morpholin-4-yl)][Bip][Bip(4'-NHAc)]GYDRVPVRLCG-NH2; thioether N-13) | 0.05 to 0.2
CC(=O)Nc1ccc(-c2ccc(C[C@@H]3NC(=O)[C@H](Cc4ccc(-c5ccccc5)cc4)NC(=O)[C@H](C(C)(C)O)NC(=O)CSC[C@@H](C(=O)NCC(N)=O)NC(=O)[C@H](CC(C)C)NC(=O)[C@H](CCCNC(=N)N)NC(=O)[C@H](C(C)C)NC(=O)[C@@H]4CCCN4C(=O)[C@H](C(C)C)NC(=O)[C@H](CCCNC(=N)N)NC(=O)[C@H](CC(=O)O)NC(=O)[C@H](Cc4ccc(O)cc4)NC(=O)CN(C)C3=O)cc2)cc1 [Example 193] ({CH2CO}-[Val(3-OH)][Bip][Bip(4'-NHAc)][Sar]YDRVPVRLCG-NH2; thioether N-13) | 0.05 to 0.2
CC(=O)Nc1ccc(-c2ccc(C[C@@H]3NC(=O)[C@H](Cc4ccc(-c5ccccc5)cc4)NC(=O)[C@H](C(C)(C)O)NC(=O)CSC[C@@H](C(=O)NCC(N)=O)NC(=O)[C@H](CC(C)C)NC(=O)[C@H](Cc4ccc(O)cc4)NC(=O)[C@H](C(C)C)NC(=O)[C@@H]4CCCN4C(=O)[C@H](C(C)C)NC(=O)[C@H](CCCNC(=N)N)NC(=O)[C@H](CC(=O)O)NC(=O)[C@@H]4CCCN4C(=O)CN(C)C3=O)cc2)cc1 [Example 194] ({CH2CO}-[Val(3-OH)][Bip][Bip(4'-NHAc)][Sar]PDRVPVYLCG-NH2; thioether N-13) | 0.05 to 0.2
CC(=O)Nc1ccc(-c2ccc(C[C@@H]3NC(=O)[C@H](Cc4ccc(-c5ccccc5)cc4)NC(=O)[C@H](CN4CCOCC4)NC(=O)CSC[C@@H](C(=O)NCC(N)=O)NC(=O)[C@H](CC(C)C)NC(=O)[C@H](CCCNC(=N)N)NC(=O)[C@H](C(C)C)NC(=O)[C@@H]4CCCN4C(=O)[C@H](C(C)C)NC(=O)[C@@H](CCCNC(=N)N)NC(=O)[C@H](CC(=O)O)NC(=O)[C@H](Cc4ccc(O)cc4)NC(=O)CN(C)C3=O)cc2)cc1 [Example 195] ({CH2CO}-[Ala(morpholin-4-yl)][Bip][Bip(4'-NHAc)][Sar]YD[dR]VPVRLCG-NH2; thioether N-13) | < 0.05
CC(=O)Nc1ccc(-c2ccc(C[C@@H]3NC(=O)[C@H](Cc4ccc(-c5ccccc5)cc4)NC(=O)[C@H](CN4CCOCC4)NC(=O)CSC[C@@H](C(=O)NCC(N)=O)NC(=O)[C@H](CC(C)C)NC(=O)[C@H](Cc4ccc(O)cc4)NC(=O)[C@H](C(C)C)NC(=O)[C@@H]4CCCN4C(=O)[C@H](C(C)C)NC(=O)[C@H](CCCNC(=N)N)NC(=O)[C@H](CC(=O)O)NC(=O)[C@@H]4CCCN4C(=O)CN(C)C3=O)cc2)cc1 [Example 196] ({CH2CO}-[Ala(morpholin-4-yl)][Bip][Bip(4'-NHAc)][Sar]PDRVPVYLCG-NH2; thioether N-13) | < 0.05
CC(=O)Nc1ccc(-c2ccc(C[C@@H]3NC(=O)[C@H](Cc4ccc(-c5ccccc5)cc4)NC(=O)[C@H](Cc4c[nH]c5ccccc45)NC(=O)CSC[C@@H](C(=O)NCC(N)=O)NC(=O)[C@H](CC(C)C)NC(=O)[C@H](Cc4ccc(O)cc4)NC(=O)[C@H](C(C)C)NC(=O)[C@@H]4CCCN4C(=O)[C@H](C(C)C)NC(=O)[C@@H](CCCNC(=N)N)NC(=O)[C@H](CC(=O)O)NC(=O)[C@H](Cc4ccccn4)NC(=O)CN(C)C3=O)cc2)cc1 [Example 197] ({CH2CO}-W[Bip][Bip(4'-NHAc)][Sar][2Pal]D[dR]VPVYLCG-NH2; thioether N-13) | 0.05 to 0.2
CC(=O)Nc1ccc(-c2ccc(C[C@@H]3NC(=O)[C@H](Cc4ccc(-c5ccc(C(=O)O)cc5)cc4)NC(=O)[C@H](CN4CCOCC4)NC(=O)CSC[C@@H](C(=O)NCC(N)=O)NC(=O)[C@H](CC(C)C)NC(=O)[C@H](CCCNC(=N)N)NC(=O)[C@H](C)NC(=O)[C@@H]4CCCN4C(=O)[C@H](C(C)C)NC(=O)[C@@H](CCCNC(=N)N)NC(=O)[C@H](CC(=O)O)NC(=O)[C@@H]4CCCN4C(=O)CN(C)C3=O)cc2)cc1 [Example 198] ({CH2CO}-[Ala(morpholin-4-yl)][Bip(4'-COOH)][Bip(4'-NHAc)][Sar]PD[dR]VPARLCG-NH2; thioether N-13) | < 0.05
CC(=O)Nc1ccc(-c2ccc(C[C@@H]3NC(=O)[C@H](Cc4ccc(-c5ccc(C(=O)O)cc5)cc4)NC(=O)[C@H](CN4CCOCC4)NC(=O)CSC[C@@H](C(=O)NCC(N)=O)NC(=O)[C@H](CC(C)C)NC(=O)[C@H](Cc4ccccc4C)NC(=O)[C@H](C(C)C)NC(=O)[C@@H]4CCCN4C(=O)[C@H](C(C)C)NC(=O)[C@@H](CCCNC(=N)N)NC(=O)[C@H](CC(=O)O)NC(=O)[C@H](Cc4ccccn4)NC(=O)CN(C)C3=O)cc2)cc1 [Example 199] ({CH2CO}-[Ala(morpholin-4-yl)][Bip(4'-COOH)][Bip(4'-NHAc)][Sar][2Pal]D[dR]VPV[Phe(2-Me)]LCG-NH2; thioether N-13) | < 0.05
CC(=O)Nc1ccc(-c2ccc(C[C@@H]3NC(=O)[C@H](Cc4ccc(-c5ccc(C(=O)O)cc5)cc4)NC(=O)[C@H](CN4CCOCC4)NC(=O)CSC[C@@H](C(=O)NCC(N)=O)NC(=O)[C@H](CC(C)C)NC(=O)[C@H](Cc4cccc(C(N)=O)c4)NC(=O)[C@H](C(C)C)NC(=O)[C@@H]4CCCN4C(=O)[C@H](C(C)C)NC(=O)[C@@H](CCCNC(=N)N)NC(=O)[C@H](CC(=O)O)NC(=O)[C@H](Cc4ccccn4)NC(=O)CN(C)C3=O)cc2)cc1 [Example 200] ({CH2CO}-[Ala(morpholin-4-yl)][Bip(4'-COOH)][Bip(4'-NHAc)][Sar][2Pal]D[dR]VPV[Phe(3-CONH2)]LCG-NH2; thioether N-13) | 0.05 to 0.2
CC(=O)Nc1ccc(-c2ccc(C[C@@H]3NC(=O)[C@H](Cc4ccc(-c5ccccc5)cc4)NC(=O)[C@H](CN4CCOCC4)NC(=O)CSC[C@@H](C(=O)NCC(N)=O)NC(=O)[C@H](CC(C)C)NC(=O)[C@H](CCCNC(=N)N)NC(=O)[C@H](C4CCCCC4)NC(=O)[C@@H]4CCCN4C(=O)[C@H](C(C)C)NC(=O)[C@@H](CCCNC(=N)N)NC(=O)[C@H](CC(=O)O)NC(=O)[C@H](Cc4ccccn4)NC(=O)CN(C)C3=O)cc2)cc1 [Example 201] ({CH2CO}-[Ala(morpholin-4-yl)][Bip][Bip(4'-NHAc)][Sar][2Pal]D[dR]VP[Chg]RLCG-NH2; thioether N-13) | < 0.05
CC(C)C[C@@H]1NC(=O)[C@H](CCCNC(=N)N)NC(=O)[C@H](C(C)C)NC(=O)[C@@H]2CCCN2C(=O)[C@H](C(C)C)NC(=O)[C@@H](CCCNC(=N)N)NC(=O)[C@H](CC(=O)O)NC(=O)[C@@H]2CCCN2C(=O)CN(C)C(=O)[C@H](Cc2ccc(-c3ccccc3)cc2)NC(=O)[C@H](Cc2ccc(-c3ccccc3)cc2)NC(=O)[C@H](CN2CCOCC2)NC(=O)CSC[C@@H](C(=O)NCC(N)=O)NC1=O [Example 202] ({CH2CO}-[Ala(morpholin-4-yl)][Bip][Bip][Sar]PD[dR]VPVRLCG-NH2; thioether N-13) | 0.2 to 2
CC(=O)Nc1ccc(-c2ccc(C[C@@H]3NC(=O)[C@H](Cc4ccc(-c5ccccc5)cc4)NC(=O)[C@H](CN4CCOCC4)NC(=O)CSC[C@@H](C(=O)NCC(N)=O)NC(=O)[C@H](CC(C)C)NC(=O)[C@H](CCCNC(=N)N)NC(=O)[C@H](C(C)C)NC(=O)[C@@H]4CCCN4C(=O)[C@H](C(C)C)NC(=O)[C@@H](CCCNC(=N)N)NC(=O)[C@H](CC(=O)O)NC(=O)[C@H](Cc4ccccn4)NC(=O)CN(C)C3=O)cc2)cc1 [Example 203] ({CH2CO}-[Ala(morpholin-4-yl)][Bip][Bip(4'-NHAc)][Sar][2Pal]D[dR]VPVRLCG-NH2; thioether N-13) | < 0.05
CC(C)C[C@@H]1NC(=O)[C@H](CCCNC(=N)N)NC(=O)[C@H](C2CCCCC2)NC(=O)[C@@H]2CCCN2C(=O)[C@H](C(C)C)NC(=O)[C@@H](CCCNC(=N)N)NC(=O)[C@H](CC(=O)O)NC(=O)[C@H](Cc2ccccn2)NC(=O)CN(C)C(=O)[C@H](Cc2ccc(-c3ccccc3)cc2)NC(=O)[C@H](Cc2ccc(-c3ccccc3)cc2)NC(=O)[C@H](CN2CCOCC2)NC(=O)CSC[C@@H](C(=O)NCC(N)=O)NC1=O [Example 204] ({CH2CO}-[Ala(morpholin-4-yl)][Bip][Bip][Sar][2Pal]D[dR]VP[Chg]RLCG-NH2; thioether N-13) | 0.05 to 0.2
CC(C)C[C@@H]1NC(=O)[C@H](CCCNC(=N)N)NC(=O)[C@H](C(C)C)NC(=O)[C@@H]2CCCN2C(=O)[C@H](C(C)C)NC(=O)[C@@H](CCCNC(=N)N)NC(=O)[C@H](CC(=O)O)NC(=O)[C@H](Cc2ccccn2)NC(=O)CN(C)C(=O)[C@H](Cc2ccc(-c3ccccc3)cc2)NC(=O)[C@H](Cc2ccc(-c3ccccc3)cc2)NC(=O)[C@H](CN2CCOCC2)NC(=O)CSC[C@@H](C(=O)NCC(N)=O)NC1=O [Example 205] ({CH2CO}-[Ala(morpholin-4-yl)][Bip][Bip][Sar][2Pal]D[dR]VPVRLCG-NH2; thioether N-13) | 0.05 to 0.2
